Source: patent publication US5380646A, “Thrombus detection using radiolabelled disintegrins” (Temple University of the Commonwealth System of Higher …, priority 1992, dated 1995)
Ends that are not written are not given here.

How the values were obtained:
pulmonary emboli [1] = details: literature, in words; cited from earlier work
thrombi = details: literature, in words; cited from earlier work
femoral clot = assay: Comparison of short Arg-Gly-Asp peptides to disintegrins in dog, femoral clot (Example 7); type: in vivo; details: T:B at least 4:1 in extremities, 9:1 in chest
Procedure: In this example of thrombi and emboli in a dog, the radioactivity target:background ratios were determined qualitatively by imaging and quantitatively by tissue sampling. […] Significant measurements presented in this study are the relative ratio of counts from the target tissue (thrombus and pulmonary emboli) to background entities (muscle, vessels blood etc.). […] Thrombus uptake data, such as the percent injected radiolabel dose per gram of thrombus (% id/g thrombus), thrombus-to-blood (=100×% id/g thrombus.div.%id/g blood) and thrombus-to-muscle ratios (=100×%id/g thrombus.div.%id/g muscle) were calculated from the tissue sample count data discussed below.
A female mongrel dog weighing 40 lbs was fasted overnight. The dog was sedated with an intramuscular injection of a mixture of ketamine hydrochloride and acepromazine maleate. General anesthesia was induced with intravenous pentobarbital (20 mg/kg). After shaving and washing the dog's skin, a 3-cm incision was made in the right groin area. Using blunt dissection, a segment of the femoral vein was located and freed from surrounding tissue for a length of 1 inch. […]
At 2 hours and 45 min. post injection, deep anesthesia was induced by intravenous administration of 30 mg/kg pentobarbital. […] Each sample was then placed in a counting tube and counted along with a saved aliquot of the injected dose as a standard, in a well counter. […]

pulmonary emboli [2] = assay: Comparison of short Arg-Gly-Asp peptides to disintegrins in dog, pulmonary emboli (Example 7); type: in vivo; details: PE; 4 hrs
Procedure: In this example of thrombi and emboli in a dog, the radioactivity target:background ratios were determined qualitatively by imaging and quantitatively by tissue sampling. Higher ratios are due to the increased target specificity of the radiolabel carrier. Significant measurements presented in this study are the relative ratio of counts from the target tissue (thrombus and pulmonary emboli) to background entities (muscle, vessels blood etc.). […] Thrombus uptake data, such as the percent injected radiolabel dose per gram of thrombus (% id/g thrombus), thrombus-to-blood (=100×% id/g thrombus.div.%id/g blood) and thrombus-to-muscle ratios (=100×%id/g thrombus.div.%id/g muscle) were calculated from the tissue sample count data discussed below.
To create a model of pulmonary embolus, an incision was made in the corresponding location on the left leg of the dog. […] The catheter and guide wire were withdrawn. The incision was closed with 2-0 silk.
Twenty-four hours after placement of the coils, anesthesia was induced as before. The urinary bladder was catheterized to collect urine. A large field of view gamma camera (General Electric, Milwaukee, Wis.) was positioned over the dog for an anterior view of the chest. The camera was fitted with a low-energy all-purpose collimator and was set to acquire the 159 keV photopeak of ^123 I with a 20% window. A Macintosh IIx computer was interfaced to the camera using a NucLear Mac A/D board and software (Scientific Imaging, Denver, Colo.). […] The ^125 -fibrinogen served as a control, since it has been studied previously in this dog model.
[…] A blood sample was drawn and 0.3 cc was transferred into each of two pre-weighed tubes. The animal was euthanized with intracardiac injection of KCl saturated solution. The vein segment containing the thrombus was carefully removed and dissected to separate the thrombus, coil, Dacron fibers and vessel wall. Each of these samples was placed on tared paper and weighed (wet weight). Similar size samples of control vessel (femoral vein from the control side) and skeletal muscle (from the thigh) were also collected and weighed. The "abnormal vessel" was the sample of vein from which the thrombus was dissected. The "control vessel" was the identical control vessel from the opposite leg. The control vessel Was not injured and therefore should not have significant uptake of radiotracer. Each sample was then placed in a counting tube and counted along with a saved aliquot of the injected dose as a standard, in a well counter. After counting, samples were held for decay of ^123 I and recounted in a lower energy window to collect the counts from ^125 I.
The imaging ability of the small peptides was compared to that of the ^123 I-labelled disintegrins in the Example 6 dog model. […]

## Fibronectin
Pulmonary emboli [1]
  ability to image pulmonary emboli: not been useful for imaging pulmonary emboli

## Heparin [reference compound]
thrombi
  ability to image or detect thrombi: not been found successful as an agent for imaging thrombi

## ^123 I-eristostatin: eristostatin, disintegrin from Eristocophis macmahoni, radioiodinated with ^123 I (QEEPCATGPCCRRCKFKRAGKVCRVARGDWNDDYCTGKSCDCPRNPWN; cysteine pairing not given here; also: radioiodinated with 123I, place not given here)
Femoral clot
  target:background ratios versus medically acceptable range for imaging: medically significant background ratios for imaging of thrombi
Pulmonary emboli [2]
  AV:CV abnormal (injured) vessel:control vessel label ratio: 1.2
  Percent Injected Dose Per Gram of Thrombus: 0.1205 % id/g
  T:B thrombus:blood ratio: 8.6
  T:M thrombus:muscle ratio: 40.6

## streptokinase
thrombi
  ability to image or detect thrombi: only with marginal success

## urokinase
thrombi
  ability to image or detect thrombi: only with marginal success
